Measured values reported in patent publication US12161722B2, “Bifunctional heterocyclic compound having BTK degradation function via ubiquitin proteasome pathway, and use thereof” (KOREA RESEARCH INSTITUTE OF CHEMICAL TECHNOLOGY, priority 2021, dated 2024).

Experiments:
C481S BTK protein = target: T1, C481S BTK protein (Homo sapiens, UniProt Q06187, C481S); assay: BTK protein degradation assay (Western blotting), C481S BTK; assay type: cell-based; details: concentration range accounting for 50% degradation of C481S BTK protein, 293T BTK MUT (C481S) cells
T1 construct: expressed in transfected cells; host or cells: 293T BTK MUT (C481S) cells
Procedure, shortened: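 TMD-8, RAMOS or 293T BTK C481S cells were treated 24 h with compounds from 10-fold DMSO stock series (10 to 0.0001 mM). BTK was measured by Western blot with GAPDH/β-actin references. Activity was binned by concentration giving 50% degradation: +++ (0.0001-0.01 μM), ++ (0.01-1 μM), + (1-10 μM), − (>10 μM).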

WT BTK protein = target: T2, WT BTK protein (Homo sapiens, UniProt Q06187); assay: BTK protein degradation assay (Western blotting), WT BTK; assay type: cell-based; details: concentration range accounting for 50% degradation of WT BTK protein, TMD-8 or RAMOS cells, 24 hours
T2 construct: measured for intracellular BTK protein levels by Western blotting; endogenous in cells; host or cells: TMD-8 or RAMOS cells
Procedure, shortened: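 TMD-8 cells (1×10^6 cells/mL) treated 24 h with compound serial dilutions, then lysed in RIPA. Equal protein loads analysed by Western blot for BTK with GAPDH/β-actin as loading controls; activity binned by concentration giving 50% WT BTK degradation.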

T2 sequence (Q06187 whole entry): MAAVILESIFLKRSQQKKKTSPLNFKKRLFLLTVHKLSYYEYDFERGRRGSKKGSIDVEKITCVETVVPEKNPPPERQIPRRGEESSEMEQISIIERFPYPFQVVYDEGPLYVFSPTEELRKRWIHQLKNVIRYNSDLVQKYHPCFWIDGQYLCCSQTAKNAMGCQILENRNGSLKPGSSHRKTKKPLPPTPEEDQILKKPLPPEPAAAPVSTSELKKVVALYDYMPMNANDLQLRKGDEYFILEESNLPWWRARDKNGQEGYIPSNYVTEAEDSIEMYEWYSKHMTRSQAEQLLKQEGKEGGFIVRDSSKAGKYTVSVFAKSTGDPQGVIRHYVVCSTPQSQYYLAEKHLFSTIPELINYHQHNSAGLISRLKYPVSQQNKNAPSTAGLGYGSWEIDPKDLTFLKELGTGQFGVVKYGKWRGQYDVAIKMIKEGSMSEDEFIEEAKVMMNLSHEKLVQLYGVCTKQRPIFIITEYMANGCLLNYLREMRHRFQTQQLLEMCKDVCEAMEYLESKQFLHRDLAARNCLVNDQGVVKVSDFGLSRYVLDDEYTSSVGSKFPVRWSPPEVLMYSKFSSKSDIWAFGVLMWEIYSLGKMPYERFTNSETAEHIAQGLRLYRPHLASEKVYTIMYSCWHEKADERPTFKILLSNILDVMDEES
T1 sequence (Q06187 whole entry C481S): as the sequence (Q06187 whole entry) above, with C481S counted along it

| DC50 (C481S BTK protein) [nM] | DC50 (WT BTK protein) [nM] | SMILES |
| --- | --- | --- |
| 10 to 1000 | 10 to 1000 | Cc1cccc(C)c1Nc1nn(C)c2nc(Nc3ccc4c(c3)CN(CC3CCN(Cc5ccc6nnn(C7CCC(=O)NC7=O)c(=O)c6c5)CC3)CC4)ncc12 (stereo not drawn) [Compound 46] |
| 10 to 1000 | 0.1 to 10 | Cc1cccc(C)c1Nc1nn(C)c2nc(Nc3ccc4c(c3)CN(C(=O)C3CCN(C(=O)CNc5ccc6nnn(C7CCC(=O)NC7=O)c(=O)c6c5)CC3)CC4)ncc12 (stereo not drawn) [Compound 57] |
| 10 to 1000 | 0.1 to 10 | Cc1cccc(C)c1Nc1nn(C)c2nc(Nc3ccc4c(c3)CN(C(=O)C3CCN(c5ccc6nnn(C7CCC(=O)NC7=O)c(=O)c6c5)CC3)CC4)ncc12 (stereo not drawn) [Compound 58, 3-(6-(4-(7-((3-((2,6-Dimethylphenyl)amino)-1-methyl-1H-pyrazolo[3,4-d]pyrimidin-6-yl)amino)-1,2,3,4-tetrahydroisoquinoline-2-carbonyl)piperidin-1-yl)-4-oxobenzo[d][1,2,3]triazin-3 (4H)-yl)piperidin-2,6-one] |
| 1000 to 10000 | 0.1 to 10 | Cc1cccc(C)c1Nc1nn(C)c2nc(Nc3ccc4c(c3)CN(C(=O)C3CCN(c5cccc6nnn(C7CCC(=O)NC7=O)c(=O)c56)CC3)CC4)ncc12 (stereo not drawn) [Compound 59] |
| 10 to 1000 | 0.1 to 10 | Cc1cccc(C)c1Nc1nn(C)c2nc(Nc3ccc4c(c3)CN(C(=O)C3CCN(C(=O)C5CCN(c6ccc7c(=O)n(C8CCC(=O)NC8=O)nnc7c6)CC5)CC3)CC4)ncc12 (stereo not drawn) [Compound 60, 3-(7-(4-(4-(7-((3-((2,6-Dimethylphenyl)amino)-1-methyl-1H-pyrazolo[3,4-d]pyrimidin-6-yl)amino)-1,2,3,4-tetrahydroisoquinoline-2-carbonyl)piperidine-1-carbonyl)piperidin-1-yl)-4-oxobenzo[d][1,2,3]triazin-3 (4H)-yl)piperidin-2,6-one] |
| 10 to 1000 | 0.1 to 10 | Cc1cccc(C)c1Nc1nn(C)c2nc(Nc3ccc4c(c3)CN(CC3CCN(C(=O)C5CCN(c6cccc7nnn(C8CCC(=O)NC8=O)c(=O)c67)CC5)CC3)CC4)ncc12 (stereo not drawn) [Compound 62, 3-(5-(4-(4-((7-((3-((2,6-Dimethylphenyl)amino)-1-methyl-1H-pyrazolo[3,4-d]pyrimidin-6-yl)amino)-3,4-dihydroisoquinolin-2 (1H)-yl)methyl)piperidine-1-carbonyl)piperidin-1-yl)-4-oxobenzo[d][1,2,3]triazin-3 (4H)-yl)piperidin-2,6-one] |

The next lines start with the compound.

| SMILES | DC50 (C481S BTK protein) [nM] | DC50 (WT BTK protein) [nM] |
| --- | --- | --- |
| Cc1cccc(C)c1Nc1nn(C)c2nc(Nc3ccc4c(c3)CN(CC3CCN(c5ccc6c(c5)C(=O)N(C5CCC(=O)NC5=O)C6=O)CC3)CC4)ncc12 (stereo not drawn) [Compound 29, 5-(4-((7-((3-((2,6-Dimethylphenyl)amino)-1-methyl-1H-pyrazolo[3,4-d]pyrimidin-6-yl)amino)-3,4-dihydroisoquinolin-2 (1H)-yl)methyl)piperidin-1-yl)-2-(2,6-dioxopiperidin-3-yl)isoindoline-1,3-dione] | 10 to 1000 | 0.1 to 10 |
| Cc1cccc(C)c1Nc1nn(C)c2nc(Nc3ccc4c(c3)CN(CC3CCN(C(=O)COc5ccc6c(c5)C(=O)N(C5CCC(=O)NC5=O)C6=O)CC3)CC4)ncc12 (stereo not drawn) [Compound 30, 5-(2-(4-((7-((3-((2,6-Dimethylphenyl)amino)-1-methyl-1H-pyrazolo[3,4-d]pyrimidin-6-yl)amino)-3,4-dihydroisoquinolin-2 (1H)-yl)methyl)piperidin-1-yl)-2-oxoethoxy)-2-(2,6-dioxopiperidin-3-yl)isoindoline-1,3-dione] | 10 to 1000 | 0.1 to 10 |
| Cc1cccc(C)c1Nc1nn(C)c2nc(Nc3ccc4c(c3)CN(CC3CCN(C(=O)CN5CCN(c6ccc7c(c6)C(=O)N(C6CCC(=O)NC6=O)C7=O)CC5)CC3)CC4)ncc12 (stereo not drawn) [Compound 31, 5-(4-(2-(4-((7-((3-((2,6-Dimethylphenyl)amino)-1-methyl-1H-pyrazolo[3,4-d]pyrimidin-6-yl)amino)-3,4-dihydroisoquinolin-2 (1H)-yl)methyl)piperidin-1-yl)-2-oxoethyl)piperazin-1-yl)-2-(2,6-dioxopiperidin-3-yl)isoindoline-1,3-dione] | 10 to 1000 | 0.1 to 10 |
| Cc1cccc(C)c1Nc1nn(C)c2nc(Nc3ccc4c(c3)CN(C(=O)[C@H]3CCCN3C(=O)CN3CCN(c5ccc6c(c5)C(=O)N(C5CCC(=O)NC5=O)C6=O)CC3)CC4)ncc12 (stereo partly drawn) [Compound 32, 5-(4-(2-((R)-2-(7-((3-((2,6-Dimethylphenyl)amino)-1-methyl-1H-pyrazolo[3,4-d]pyrimidin-6-yl)amino)-1,2,3,4-tetrahydroisoquinoline-2-carbonyl)pyrrolidin-1-yl)-2-oxoethyl)piperazin-1-yl)-2-(2,6-dioxopiperidin-3-yl)isoindoline-1,3-dione] | 1000 to 10000 | 10 to 1000 |
| Cc1cccc(C)c1Nc1nn(C)c2nc(Nc3ccc4c(c3)CN(C(=O)[C@@H]3CCCN3C(=O)CNc3ccc5c(c3)C(=O)N(C3CCC(=O)NC3=O)C5=O)CC4)ncc12 (stereo partly drawn) [Compound 35, 5-((2-((S)-2-(7-((3-((2,6-Dimethylphenyl)amino)-1-methyl-1H-pyrazolo[3,4-d]pyrimidin-6-yl)amino)-1,2,3,4-tetrahydroisoquinoline-2-carbonyl)pyrrolidin-1-yl)-2-oxoethyl)amino)-2-(2,6-dioxopiperidin-3-yl)isoindoline-1,3-dione] | 10 to 1000 | 0.1 to 10 |
| Cc1cccc(C)c1Nc1nn(C)c2nc(Nc3ccc4c(c3)CN(CC3CCN(C(=O)C5CCN(c6ccc7nnn(C8CCC(=O)NC8=O)c(=O)c7c6)CC5)CC3)CC4)ncc12 (stereo not drawn) [Compound 37, 3-(6-(4-(4-((7-((3-((2,6-Dimethylphenyl)amino)-1-methyl-1H-pyrazolo[3,4-d]pyrimidin-6-yl)amino)-3,4-dihydroisoquinolin-2 (1H)-yl)methyl)piperidine-1-carbonyl)piperidin-1-yl)-4-oxobenzo[d][1,2,3]triazin-3 (4H)-yl)piperidin-2,6-one] | 0.1 to 10 | 0.1 to 10 |
| Cc1cccc(C)c1Nc1nn(C)c2nc(Nc3ccc4c(c3)CN(CC3CCN(c5ccc6c(=O)n(C7CCC(=O)NC7=O)nnc6c5)CC3)CC4)ncc12 (stereo not drawn) [Compound 53, 3-(7-(4-((7-((3-((2,6-Dimethylphenyl)amino)-1-methyl-1H-pyrazolo[3,4-d]pyrimidin-6-yl)amino)-3,4-dihydroisoquinolin-2 (1H)-yl)methyl)piperidin-1-yl)-4-oxobenzo[d][1,2,3]triazin-3 (4H)-yl)piperidin-2,6-one] | 10 to 1000 | 0.1 to 10 |
| Cc1cccc(C)c1Nc1nn(C)c2nc(Nc3ccc4c(c3)CN(C(=O)C3CCN(C(=O)C5CCN(c6ccc7c(c6)C(=O)N(C6CCC(=O)NC6=O)C7=O)CC5)CC3)CC4)ncc12 (stereo not drawn) [Compound 54, 5-(4-(4-(7-((3-((2,6-Dimethylphenyl)amino)-1-methyl-1H-pyrazolo[3,4-d]pyrimidin-6-yl)amino)-1,2,3,4-tetrahydroisoquinoline-2-carbonyl)piperidine-1-carbonyl)piperidin-1-yl)-2-(2,6-dioxopiperidin-3-yl)isoindoline-1,3-dione] | 10 to 1000 | 0.1 to 10 |
| Cc1cccc(C)c1Nc1nn(C)c2nc(Nc3ccc4c(c3)CN(C(=O)C3CCN(C(=O)COc5ccc6nnn(C7CCC(=O)NC7=O)c(=O)c6c5)CC3)CC4)ncc12 (stereo not drawn) [Compound 55, 3-(6-(2-(4-(7-((3-((2,6-Dimethylphenyl)amino)-1-methyl-1H-pyrazolo[3,4-d]pyrimidin-6-yl)amino)-1,2,3,4-tetrahydroisoquinoline-2-carbonyl)piperidin-1-yl)-2-oxoethoxy)-4-oxobenzo[d][1,2,3]triazin-3 (4H)-yl)piperidin-2,6-one] | 10 to 1000 | 0.1 to 10 |
| Cc1cccc(C)c1Nc1nn(C)c2nc(Nc3ccc4c(c3)CN(C(=O)C3CCN(c5ccc6c(c5)C(=O)N(C5CCC(=O)NC5=O)C6=O)CC3)CC4)ncc12 (stereo not drawn) [Compound 56, 5-(4-(7-((3-((2,6-Dimethylphenyl)amino)-1-methyl-1H-pyrazolo[3,4-d]pyrimidin-6-yl)amino)-1,2,3,4-tetrahydroisoquinoline-2-carbonyl)piperidin-1-yl)-2-(2,6-dioxopiperidin-3-yl)isoindoline-1,3-dione] | 10 to 1000 | 10 to 1000 |
| Cc1cccc(C)c1Nc1nn(C)c2nc(Nc3ccc4c(c3)CN(CC3CCN(C(=O)C5CCN(c6ccc7c(=O)n(C8CCC(=O)NC8=O)nnc7c6)CC5)CC3)CC4)ncc12 (stereo not drawn) [Compound 61, 3-(7-(4-(4-((7-((3-((2,6-Dimethylphenyl)amino)-1-methyl-1H-pyrazolo[3,4-d]pyrimidin-6-yl)amino)-3,4-dihydroisoquinolin-2 (1H)-yl)methyl)piperidine-1-carbonyl)piperidin-1-yl)-4-oxobenzo[d][1,2,3]triazin-3 (4H)-yl)piperidin-2,6-one] | 0.1 to 10 | 0.1 to 10 |
| Cc1cccc(C)c1Nc1nn(C)c2nc(Nc3ccc4c(c3)CN(CC3CCN(C(=O)CNc5ccc6c(=O)n(C7CCC(=O)NC7=O)nnc6c5)CC3)CC4)ncc12 (stereo not drawn) [Compound 63, 3-(7-((2-(4-((7-((3-((2,6-Dimethylphenyl)amino)-1-methyl-1H-pyrazolo[3,4-d]pyrimidin-6-yl)amino)-3,4-dihydroisoquinolin-2 (1H)-yl)methyl)piperidin-1-yl)-2-oxoethyl)amino)-4-oxobenzo[d][1,2,3]triazin-3 (4H)-yl)piperidin-2,6-one] | 10 to 1000 | 0.1 to 10 |
